Measured values as given in patent US20220331219A1, “METHODS AND COMPOSITIONS FOR PROVIDING SKIN CARE BENEFITS” (DANISCO US INC., priority 2019, published 2022).
Marks after values point to notes of the source that are not given here. Blank lines part the entries; values can stand above or below the molecule they belong to.

What was measured:
[1] = system: reconstructed human epidermis (RHE); experiment: Caffeine diffusion test ([14C]-caffeine diffusion, barrier function); format: cell-based; details: for Barrier function (% control) / [14C]-caffeine diffusion, % control / [14C]-caffeine diffusion, Mean (cpm): systemic, 7 days
Protocol: A test referred to as “caffeine diffusion test” was performed, which consists of the measurement of the effect of compounds mevalonolactone (MVL) on the skin barrier reinforcement. It is one method to measure skin barrier function (strength) as when the skin barrier has been strengthened, the amount of penetrating tracer molecules decreases (i.e. if skin is damaged more, the easier the tracer penetrates the skin). In this study, the effect of mevalonolactone, was assessed on [^14C]-caffeine diffusion through reconstructed human epidermis (RHE) under basal condition, in order to evaluate the skin barrier function. Caffeine diffusion is inversely proportional to barrier function. RHE (RHE, 0-day-old, Bioalternatives reference: EPI-Ba, batch n° 01015-515) were cultured under the following conditions: 37° C., 5% CO2, and the culture media was the Bioaltematives maintenance medium. The tested MVL concentration were 0.001%, 0.005% and 0.01% by weight of assay medium, in systemic way (added to the culture media).
RHE at day 0 were placed at the air/liquid interface in culture medium containing or not (control) the test compounds, their association or the reference (vitamin C at 200 μg/ml) (systemic application). RHE were then, incubated for 7 days with treatment renewals at day 3 and day 5. All experimental conditions were performed in n=3.
At the end of incubation (D7), radioactive caffeine ([^14C]-caffeine) was applied onto the surface of each epidermis. The radioactivity contained in subnatants was measured by liquid scintillation according to the following kinetic: 30 minutes, 1 and 2 hours.
Raw data were analyzed using Microsoft Excel® software and GraphPad PRISM® software. The inter-group comparisons were performed by an unpaired Student's t-test. The statistical analysis can be interpreted if n≥5, however for n<5 the statistical values are for information only. Formulas used in this report:
Standard error of the mean: sem=Sd/√n; Barrier function: […]

[2] = system: Phenion® Full-Thickness (FT) Skin Model; experiment: Lipidomic profile of skin model after topical treatment (LC-MS); format: cell-based, human
[3] = MVL*H2O solubility in water (equilibrium DS content); format: physicochemical; details: calculated to purity 100
Protocol: Solubility is one property to characterize a crystalline compound. Crystallization is possible only above solubility concentration in supersaturated syrups. Solubility determines minimal DS concentration for the crystallization at given temperatures. The solubility is determined by standard methods like analyzing the equilibrium concentration from crystal suspension.
Equilibrium DS contents were measured and calculated between 0-20° C. range (Table 14).

[4] = system: female Caucasian subjects with dry skin; experiment: Skin transepidermal water loss (TEWL) after topical cream application (skin barrier function); format: in vivo, human; details: for Δ TEWL MVL (MVL cream zone − placebo cream zone): normalized to control and placebo, 1% MVL cream pH 5.5; for Δ TEWL MVL (Dx-D0): normalized to control, placebo and baseline D0
Protocol: Mevalonolactone was obtained and purified as described herein and formulated in a standard cosmetic base, at 1% of total composition by weight, resulting in cosmetic a composition (such as but not limited to a cosmetic cream). […] The base cream formula can be any formula well known to one skilled in the art.
Two separated studies were performed. Study 1 consisted of measuring the skin transepidermal water loss after topical application of the cosmetic creams (a cream with 1% MVL of total composition by weight called “MVL cream” and the control cream which was the same cream without MVL called “placebo”) formulated at pH=5.5, the skin physiological pH.
The cosmetic formulations comprising MVL as the active ingredient and the placebo treatment were applied to 6 female Caucasian subjects with dry skin (electrical capacitance<50 A.U.) by topical application.
For 2 weeks, each subject applied the MVL containing formulation and placebo formulation according to randomization. twice a day (in the morning and in the evening), under normal conditions of use (on clean skin, by slight massage until complete penetration), on delimited zones on their forearms.
Evaluation of the efficacy of the treatment was conducted by measuring the evolution of the transepidermal water loss of the skin induced by the cosmetic compositions on the skin. Water loss of the skin was determined by measurement of Trans Epidermal Water Loss (T.E.W.L. g/m^2/h) which is a non-invasive method to assess the integrity of the stratum corneum barrier function, by quantifying the water exchanges between the skin and the environment (Loden M. et al., 1992, British J of Dermatol 1992; 126: 137-141). Damage of the stratum corneum results in an increase in the T.E.W.L., leading to a more pervious skin. This method enables to assess and compare the protective effect of cosmetic investigational compositions on the cutaneous barrier between themselves, after repeated applications. and in comparison, with a control area (non-treated) and with values obtained before any products application.
In this study, the TEWL (g/m^2/h) was assessed at 5 different time points (Day 0 (baseline before product application). […]

[5] = 13% MVL solution in DPBS, 20 μl topical, 24 hours, vs control without MVL
[6] = MVL treated skin tissue, 24 hours

Compound: O=C1O[C@H]([C@@H](O)CO)C(O)=C1O [Vitamin C, reference compound]
caffeine diffusion through RHE (in words) ([1]; 200 μg/ml, systemic treatment): decreased significantly | Barrier function (% control) ([1]; 200 microg/ml, 30 min): 171** % control | [14C]-caffeine diffusion, % control ([1]; 200 microg/ml, 30 min): 58 % control | [14C]-caffeine diffusion, Mean (cpm) ([1]; 200 microg/ml, 30 min): 11133 cpm | Barrier function (% control) ([1]; 200 microg/ml, 1 hour): 148** % control | [14C]-caffeine diffusion, % control ([1]; 200 microg/ml, 1 hour): 68 % control | [14C]-caffeine diffusion, Mean (cpm) ([1]; 200 microg/ml, 1 hour): 34839 cpm | Barrier function (% control) ([1]; 200 microg/ml, 2 hours): 128** % control | [14C]-caffeine diffusion, % control ([1]; 200 microg/ml, 2 hours): 79 % control | [14C]-caffeine diffusion, Mean (cpm) ([1]; 200 microg/ml, 2 hours): 90717 cpm

Compound: C[C@@](O)(CCO)CC(=O)O [MVA, (3R)-3,5-Dihydroxy-3-methylpentanoic acid]
cholesterol amount (in words) ([2]; MVA treated skin model): stay stable | cholesterol/cholesterol sulfate ratio (in words) ([2]; topical MVA, exact same test condition as Example 26): decrease | MVA treatment effect: Ratio Cholesterol/Cholesterol sulfate ([2]; topical MVA, exact same test condition as Example 26, p = 0.088): −

solubility ([3]; 0 °C): 43.9 % DS | solubility ([3]; 4.8 °C): 52.3 % DS | solubility ([3]; 9.8 °C): 61.2 % DS | solubility ([3]; 15.0 °C): 70.6 % DS | solubility ([3]; 20.0 °C): 79.7 % DS
Compound: CC1(O)CCOC(=O)C1.O (stereo not shown) [MVL* H2O, Mevalonolactone monohydrate]

Compound: C[C@@]1(O)CCOC(=O)C1 [MVL, (R)-3-Hydroxy-3-methyl-δ-valerolactone]
Δ TEWL MVL (MVL cream zone − placebo cream zone) ([4]; D0): 2.06 g/m²/h | Δ TEWL MVL (Dx-D0) ([4]; D1-D0): −0.27 | Δ TEWL MVL (MVL cream zone − placebo cream zone) ([4]; D1): 1.79 g/m²/h | Δ TEWL MVL (Dx-D0) ([4]; D3-D0): −0.74 | Δ TEWL MVL (MVL cream zone − placebo cream zone) ([4]; D3): 1.32 g/m²/h | Δ TEWL MVL (Dx-D0) ([4]; D7-D0): −1.11 | Δ TEWL MVL (MVL cream zone − placebo cream zone) ([4]; D7): 0.95 g/m²/h | Δ TEWL MVL (Dx-D0) ([4]; D15-D0): −1.04 | Δ TEWL MVL (MVL cream zone − placebo cream zone) ([4]; D15): 1.02 g/m²/h | skin trans epidermal water loss (in words) ([4]; topically applied, after 2 weeks of repeated application): decreases the skin trans epidermal water loss | Barrier function (% control) ([1]; 0.001%, 30 min): 128 % control | [14C]-caffeine diffusion, % control ([1]; 0.001%, 30 min): 77 % control | [14C]-caffeine diffusion, Mean (cpm) ([1]; 0.001%, 30 min): 14907 cpm | Barrier function (% control) ([1]; 0.001%, 1 hour): 106 % control | [14C]-caffeine diffusion, % control ([1]; 0.001%, 1 hour): 94 % control | [14C]-caffeine diffusion, Mean (cpm) ([1]; 0.001%, 1 hour): 48423 cpm | Barrier function (% control) ([1]; 0.001%, 2 hours): 99 % control | [14C]-caffeine diffusion, % control ([1]; 0.001%, 2 hours): 101 % control | [14C]-caffeine diffusion, Mean (cpm) ([1]; 0.001%, 2 hours): 117165 cpm | Barrier function (% control) ([1]; 0.005%, 30 min): 113 % control | [14C]-caffeine diffusion, % control ([1]; 0.005%, 30 min): 87 % control | [14C]-caffeine diffusion, Mean (cpm) ([1]; 0.005%, 30 min): 16927 cpm | Barrier function (% control) ([1]; 0.005%, 1 hour): 93 % control | [14C]-caffeine diffusion, % control ([1]; 0.005%, 1 hour): 107 % control | [14C]-caffeine diffusion, Mean (cpm) ([1]; 0.005%, 1 hour): 55034 cpm | Barrier function (% control) ([1]; 0.005%, 2 hours): 95 % control | [14C]-caffeine diffusion, % control ([1]; 0.005%, 2 hours): 106 % control | [14C]-caffeine diffusion, Mean (cpm) ([1]; 0.005%, 2 hours): 122324 cpm | Barrier function (% control) ([1]; 0.01%, 30 min): 97 % control | [14C]-caffeine diffusion, % control ([1]; 0.01%, 30 min): 102 % control | [14C]-caffeine diffusion, Mean (cpm) ([1]; 0.01%, 30 min): 19700 cpm | Barrier function (% control) ([1]; 0.01%, 1 hour): 96 % control | [14C]-caffeine diffusion, % control ([1]; 0.01%, 1 hour): 104 % control | [14C]-caffeine diffusion, Mean (cpm) ([1]; 0.01%, 1 hour): 53545 cpm | Barrier function (% control) ([1]; 0.01%, 2 hours): 99 % control | [14C]-caffeine diffusion, % control ([1]; 0.01%, 2 hours): 101 % control | [14C]-caffeine diffusion, Mean (cpm) ([1]; 0.01%, 2 hours): 116509 cpm | MVL treatment effect: CE-Cholesterol Esters [2, 5]: + | MVL treatment effect: CL-CardioLipin* [2, 5]: − | MVL treatment effect: DAG-Diacylglycerol [2, 5]: − | MVL treatment effect: HexCer-Hexosylceramide* [2, 5]: + | MVL treatment effect: LPE* [2, 5]: − | MVL treatment effect: LPE-0 [2, 5]: − | MVL treatment effect: LPG-lyso-PG [2, 5]: − | MVL treatment effect: PA-Phosphatidate (PA and LPA) [2, 5]: + | MVL treatment effect: PC Phosphatidylcholine (PC 15:1;0_16:0;0*) [2, 5]: + | MVL treatment effect: PC-O- Phosphatidylcholine-ether (PC-O 16:1;0/18:2;0, plasmalogen) [2, 5]: + | MVL treatment effect: PE (species listed, *) [2, 5]: − | MVL treatment effect: PE O-16:1;0/18:1;0* [2, 5]: − | MVL treatment effect: PI-Phosphatidylinositol [2, 5]: − | MVL treatment effect: Phosphatidylglycerol (PG species listed, *) [2, 5]: − | MVL treatment effect: TAG-Triacylglycerol (TAG 47:2;0) [2, 5]: + | Cholesterol level (in words) [2, 6]: unchanged | PG/CL versus control samples (in words) [2, 6]: significant decrease | ceramides level (in words) [2, 6]: unchanged | cholesterol esters (CE) versus control samples (in words) [2, 6]: significant increase | diacylglycerol (DAG) versus control samples (in words) [2, 6]: significant decrease | hexosylceramide (HexCer) versus control samples (in words) [2, 6]: significant increase | phosphatidate (PA) versus control samples (in words) [2, 6]: significant increase | phosphatidylcholine-ether (PC-O) versus control samples (in words) [2, 6]: significant increase | phosphatidylcholines (PC) versus control samples (in words) [2, 6]: significant increase | phosphatidylethanolamine-ethers (LPE, LPE-O, PE-O) versus control samples (in words) [2, 6]: significant decrease | phosphatidylinositol versus control samples (in words) [2, 6]: significant decrease | phosphatidylserine (PS) level (in words) [2, 6]: unchanged | ratio cholesterol/chol sulfate (in words) [2, 6]: unchanged | sphingomyelin (SM) level (in words) [2, 6]: unchanged | triacylglycerol (TAG) versus control samples (in words) [2, 6]: significant increase
